Experimental data taken from US20210230178A1, “TRIOXACARCIN ANALOGS AND DIMERS AS POTENT ANTICANCER AGENTS” (William Marsh Rice University, priority 2017, published 2021).
Like-named read-outs stand apart in the source and are kept apart here. Square brackets hold non-standard residues; d marks the D form. Peptide text beside a SMILES is read from it. * marks the point of attachment. Dolaproine = CO[C@@H]([C@@H]1CCCN1)[C@@H](C)C(=O)O; Dil = CC[C@H](C)[C@H](NC)[C@@H](CC(=O)O)OC; X1 = C[C@@H](N*)[C@@H](O)c1ccccc1; NMeV = CN[C@H](C(=O)O)C(C)C

How the values were obtained:
[1] = test system: HEK 293T (human embryonic kidney cancer cell line); conditions: for IC50: read-out: IC50 HEK 293T
[2] = test system: MES SA DX (human uterine sarcoma cell line with marked multidrug resistance); conditions: for IC50: read-out: IC50 MES SA DX
[3] = test system: MES SA (human uterine sarcoma); conditions: for IC50: read-out: IC50 MES SA
[4] = test system: MES SA DX (human uterine sarcoma cell line with marked multidrug resistance); assay: cells; conditions: 72 h, read-out: IC50 MES SA DX
[5] = test system: HEK 293T (human embryonic kidney cancer cell line); assay: cells; conditions: 72 h, read-out: IC50 HEK 293T
[6] = test system: MES SA (human uterine sarcoma); assay: cells; conditions: 72 h, read-out: IC50 MES SA

Molecule	IC50 [1] [nM]	IC50 [2] [nM]	IC50 [3] [nM]	IC50 [4] [nM]	IC50 [5] [nM]	IC50 [6] [nM]	cytotoxic potency against HEK 293T, in words [1]	cytotoxic potency against MES SA DX, in words [2]	cytotoxic potency against MES SA, in words [3]
CC[C@H](C)[C@@H]([C@@H](CC(=O)N1CCC[C@H]1[C@H](OC)[C@@H](C)C(=O)N[C@H](C)[C@@H](O)c1ccccc1)OC)N(C)C(=O)[C@@H](NC(=O)[C@@H](NC)C(C)C)C(C)C [MMAE, monomethyl auristatin E, reference compound] (H-[NMeV]V[Dil][Dolaproine]-X1)	0.08	> 70	0.06						
COc1c2c(c(O)c3c4c(c(C)cc13)[C@@H]1O[C@@]3(C(OC)OC)O[C@@H]1[C@@](O[C@H]1C[C@@H](O)[C@@](O)(C(C)=O)[C@H](C)O1)(O4)[C@@]31CO1)C(=O)[C@@H](O)C[C@@H]2O[C@H]1C[C@@](C)(O)[C@H](OC(C)=O)[C@H](C)O1 [Trioxacarcin A]	0.702	204	0.74						
COc1c2c(c(O)c3c4c(c(C)cc13)[C@@H]1O[C@@]3(C(OC)OC)O[C@@H]1[C@@](O[C@H]1C[C@@H](O)[C@@](O)(C(C)=O)[C@H](C)O1)(O4)[C@@]31CO1)C(=O)[C@@H](O)C[C@@H]2O[C@H]1C[C@@](C)(O)[C@H](O)[C@H](C)O1 [Trioxacarcin D, reference compound]	8.02	> 1000	11.1						
COc1c2c(c(O)c3c4c(c(C)cc13)C1OC3(C5OCCCO5)OC1[C@@](OC)(O4)[C@@]31CO1)C(=O)CCC2 (stereo partly drawn) [Trx13]	0.4	0.42	0.56	0.38	0.5	0.53			
COc1c2c(c(O)c3c4c(c(C)cc13)C1OC3(C5OCCCO5)OC1[C@@](OCC=CCO[C@@]15Oc6c(c(C)cc7c(OC)c8c(c(O)c67)C(=O)CCC8)C6OC(C7OCCCO7)(OC61)[C@]51CO1)(O4)[C@@]31CO1)C(=O)CCC2 (stereo partly drawn) [Trx24, (1S,2S,3aS,4R,13aR,1′″S,2′″S,3a′″S,4′″R,13a′″R)-13a,13a′-[(2Z)-but-2-ene-1,4-diylbis(oxy)]bis[2-(1,3-dioxan-2-yl)-12-hydroxy-7-methoxy-5-methyl-3a,4,8,9,10,13a-hexahydro-11H-spiro[2,4-epoxyfuro[3,2-b]naphtho[2,3-h]chromene-1,2′-oxiran]-11-one]]		> 1000	> 1000		115				
COc1c2c(c(O)c3c4c(c(C)cc13)C1OC3(C5OCCCO5)OC1[C@@](OCC=CCO[C@@]15Oc6c(c(C)cc7c(OC)c8c(c(O)c67)C(=O)CCC8)C6OC(C7OCCCO7)(OC61)[C@]51CO1)(O4)[C@@]31CO1)C(=O)CCC2 (stereo partly drawn) [Trx25, (1S,2S,3aS,4R,13aR,1′″S,2′″S,3a′″S,4′R,13a′″R)-13a,13a′-[(2E)-but-2-ene-1,4-diylbis(oxy)]bis[2-(1,3-dioxan-2-yl)-12-hydroxy-7-methoxy-5-methyl-3a,4,8,9,10,13a-hexahydro-11H-spiro[2,4-epoxyfuro[3,2-b]naphtho[2,3-h]chromene-1,2′-oxiran]-11-one]]	105	429	235						
COc1c2c(c(OC(C)=O)c3c4c(c(C)cc13)[C@H]1O[C@]3(C5OCCCO5)O[C@@H]1[C@@](OC(C)=O)(O4)[C@@]31CO1)C(=O)CCC2 [Trx26, (1S,2S,3aS,4R,13aS)-2-(1,3-Dioxan-2-yl)-7-methoxy-5-methyl-11-oxo-3a,4,8,9,10,11-hexahydro-13aH-spiro[2,4-epoxyfuro[3,2-b]naphtho[2,3-h]chromene-1,2′-oxirane]-12,13a-diyl diacetate]				60.3	11.6	67.4	no significant loss of potency	no significant loss of potency	no significant loss of potency
COc1c2c(c(OC(C)=O)c3c4c(c(C)cc13)[C@H]1O[C@]3(C5OCCCO5)O[C@@H]1[C@@](OC)(O4)[C@@]31CO1)C(=O)CCC2 [Trx27, (1S,2S,3aS,4R,13aR)-2-(1,3-Dioxan-2-yl)-7,13a-dimethoxy-5-methyl-11-oxo-3a,8,9,10,11,13a-hexahydro-4H-spiro[2,4-epoxyfuro[3,2-b]naphtho[2,3-h]chromene-1,2′-oxiran]-12-yl acetate]				1.43	1.24	2.15	no significant loss of potency	no significant loss of potency	no significant loss of potency
CO[C@@]12Oc3c4c(cc(C)c3[C@H]3O[C@](C5OCCCO5)(O[C@@H]31)[C@]21CO1)C(=O)c1ccc(Cl)c(OC(C)=O)c1C4=O [Trx33, (1S,2S,3aS,4R,13aR)-10-Chloro-2-(1,3-dioxan-2-yl)-13a-methoxy-5-methyl-7,12-dioxo-3a,7,12,13a-tetrahydro-4H-spiro[2,4-epoxyfuro[3,2-b]naphtho[2,3-h]chromene-1,2′-oxiran]-11-yl acetate]				33.2	38.8	54.3			
(4R,5S,6R,10S)-8-{[(1S,2R)-2-(1,3-Dioxan-2-yl)-12-hydroxy-7-methoxy-5-methyl-11-oxo-3a,4,8,9,10,11-hexahydro-13aH-spiro[2,4-epoxyfuro[3,2-b]naphtho[2,3-h]chromene-1,2′-oxiran]-13a-yl]oxy}-4,6-dimethyl-2-oxo-1,3,7-trioxaspiro[4.5]dec-10-ylacetate [Trx22]	4.2	56.9	5.74						
